Experimental data reported in ChEMBL document CHEMBL1201862, “PubChem BioAssay data set” (2004).
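In this assay, cells in 96-well plates receive the compound at five concentrations for 48 hours. Endpoints are linearly interpolated between the surrounding concentrations. GI50 marks 50% less growth.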 Calls of active or inactive are those of the source. Rule as the data show it: active = GI50 up to about 1.1 µM and inactive = higher.

Experiments:
Assay in all cases: DTP human tumour cell line panel, 48 h
DMS-114 = test system: DMS-114
HCC 2998 = test system: HCC 2998
HOP-92 = test system: HOP-92
IGROV-1 = test system: IGROV-1
LOX IMVI = test system: LOX IMVI
M14 = test system: M14
NCI-H226 = test system: NCI-H226
OVCAR-5 = test system: OVCAR-5
OVCAR-8 = test system: OVCAR-8
RXF 393 = test system: RXF 393
SF-268 = test system: SF-268
SF-295 = test system: SF-295
SK-MEL-28 = test system: SK-MEL-28
SK-MEL-2 = test system: SK-MEL-2
SNB-19 = test system: SNB-19
SNB-75 = test system: SNB-75
SR = test system: SR
TK-10 = test system: TK-10
UACC-257 = test system: UACC-257

Structure (SMILES) | GI50 (DMS-114) | GI50 (HCC 2998) | GI50 (HOP-92) | GI50 (IGROV-1) | GI50 (LOX IMVI) | GI50 (M14) | GI50 (NCI-H226) | GI50 (OVCAR-5) | GI50 (OVCAR-8) | GI50 (RXF 393) | GI50 (SF-268) | GI50 (SF-295) | GI50 (SK-MEL-28) | GI50 (SK-MEL-2) | GI50 (SNB-19) | GI50 (SNB-75) | GI50 (SR) | GI50 (TK-10) | GI50 (UACC-257)
COc1ccc(Nc2nc3c(N)cc(C(F)(F)F)cc3nc2-c2ccccc2)cc1 | 80.7 µM (inactive) | > 100 µM (inactive) | 37.6 µM (inactive) | 52 µM (inactive) | > 100 µM (inactive) | 79.6 µM (inactive) | 68.9 µM (inactive) | > 100 µM (inactive) | > 100 µM (inactive) | 27.2 µM (inactive) | 75.7 µM (inactive) | 71.3 µM (inactive) | > 100 µM (inactive) | 89.5 µM (inactive) | 71.6 µM (inactive) | 28.8 µM (inactive) | 21.9 µM (inactive) | > 100 µM (inactive) | > 100 µM (inactive)
CC(=O)Oc1ccccc1C(=O)C1c2cccc(O)c2C(=O)c2c(O)cccc21 | 0.366 µM (active) | 0.581 µM (active) | 1.18 µM (inactive) | 0.986 µM (active) | 1.62 µM (inactive) | 1.84 µM (inactive) | 1.63 µM (inactive) | 2.58 µM (inactive) | 1.23 µM (inactive) | 0.423 µM (active) | 0.927 µM (active) | 0.682 µM (active) | 1.64 µM (inactive) | 1.19 µM (inactive) | 0.416 µM (active) | 0.695 µM (active) | 0.419 µM (active) | 3.65 µM (inactive) | 1.62 µM (inactive)
NC(=O)C(=O)n1ncc(Cl)c(Cl)c1=O | 16.9 µM (inactive) | 25.8 µM (inactive) | > 42.3 µM (inactive) | > 56.6 µM (inactive) | 22.4 µM (inactive) | 28.8 µM (inactive) | > 69.5 µM (inactive) | 37.5 µM (inactive) | 24.2 µM (inactive) | > 23.5 µM (inactive) | 46 µM (inactive) | 13.6 µM (inactive) | 23.5 µM (inactive) | 23.8 µM (inactive) | > 79.3 µM (inactive) | > 42.8 µM (inactive) | 19.2 µM (inactive) | 31.8 µM (inactive) | 34 µM (inactive)
[N-]=[N+]=NC(c1cn(C2CC(O)C(CO)O2)c(=O)[nH]c1=O)C(Br)Br (stereo not given) | > 100 µM (inactive) | > 100 µM (inactive) | > 100 µM (inactive) | > 100 µM (inactive) | > 100 µM (inactive) | > 100 µM (inactive) | > 100 µM (inactive) | > 100 µM (inactive) | > 100 µM (inactive) | > 100 µM (inactive) | – | > 100 µM (inactive) | > 100 µM (inactive) | > 100 µM (inactive) | > 100 µM (inactive) | > 100 µM (inactive) | > 100 µM (inactive) | > 100 µM (inactive) | –
O=C(COC(=O)c1cccc2c(=O)c3ccccc3[nH]c12)Nc1ccc(Cl)cc1 | 58.6 µM (inactive) | > 100 µM (inactive) | 58.9 µM (inactive) | 70.6 µM (inactive) | 23.2 µM (inactive) | 78.9 µM (inactive) | 72.8 µM (inactive) | – | > 100 µM (inactive) | 16.8 µM (inactive) | > 100 µM (inactive) | 25.5 µM (inactive) | > 100 µM (inactive) | – | 35 µM (inactive) | 24.3 µM (inactive) | 19.7 µM (inactive) | 13.1 µM (inactive) | > 100 µM (inactive)
COC(=O)C1=C(O)C(O)=C(C(=O)OC)CC1 | > 100 µM (inactive) | > 100 µM (inactive) | > 100 µM (inactive) | > 100 µM (inactive) | > 100 µM (inactive) | > 100 µM (inactive) | > 100 µM (inactive) | > 100 µM (inactive) | > 100 µM (inactive) | 17.9 µM (inactive) | > 100 µM (inactive) | > 100 µM (inactive) | > 100 µM (inactive) | > 100 µM (inactive) | > 100 µM (inactive) | > 100 µM (inactive) | > 100 µM (inactive) | > 100 µM (inactive) | > 100 µM (inactive)
